From article PMC9697031, “Identification of Novel Diarylpyrimidines as Potent HIV-1 Non-Nucleoside Reverse Transcriptase Inhibitors by Exploring the Primer Grip Region” (Pharmaceuticals, 2022)
Where two headings read alike, the source gives them in different places.

Columns and labels:
[1] = test system: HIV-1 RES056 (K103N/Y181C) mutant strain; test: Anti-HIV-1 double mutant RES056 in MT-4 cells, MTT method; type: cell-based; conditions: Human immunodeficiency virus 1, MT4, read-out: EC50 RES056
Experimental: (§2) Evaluation of the anti-HIV activity and cytotoxicity of the target compounds was performed by utilizing the MTT method in MT-4 cells described previously [37]. Stock solutions (10 × final concentration) of test compounds were added in 25 μL volumes to two series of triplicate wells to allow simultaneous evaluation of their effects on mock- and HIV-infected cells at the beginning of each experiment. Serial five-fold dilutions of test compounds were prepared directly in flat-bottomed 96-well microtiter trays by adding 100 μL medium to the 25 μL stock solution and transferring 25 μL of this solution to another well that contained 100 μL medium using a Biomek 3000 robot (Beckman Instruments, Fullerton, CA). Each sample includes untreated control HIV- and mock-infected cell samples. WT HIV-1 strain (IIIB), HIV-1 drug-resistant strains including L100I, K103N, Y181C, Y188L, E138K, K103N/Y181C, F227L/V106A or HIV-2 strain (ROD) stock (50 μL) at 100–300 CCID50 (50% cell culture infectious dose) or culture medium was added to either the infected or mock-infected wells of the microtiter tray. Mock-infected cells were used to evaluate the effect of test compounds on uninfected cells to evaluate their cytotoxicity. Exponentially growing MT-4 cells were centrifuged for 5 min at 1000 rpm, and the supernatant was discarded. […] After infection five days, the viability of mock- and HIV-infected cells was examined spectrophotometrically by the MTT assay.

[2] = test system: HIV-1 K103N mutant strain; test: microbe, parasite or virus in culture; type: cell-based; conditions: for EC50: Human immunodeficiency virus 1, MT4, read-out: EC50 K103N; for Resistance Folds K103N: RF, EC50 (K103N)/EC50 (WT)
Experimental: (§1) Stock solutions (10 × final concentration) of test compounds were added in 25 μL volumes to two series of triplicate wells to allow simultaneous evaluation of their effects on mock- and HIV-infected cells at the beginning of each experiment.

in vitro = conditions: human
Experimental: as §1

[3] = test system: HIV-1 E138K mutant strain; test: Anti-HIV-1 mutant strain E138K in MT-4 cells, MTT method; type: cell-based; conditions: Human immunodeficiency virus 1, MT4, read-out: EC50 E138K
Experimental: as §2

[4] = test system: HIV-1 L100I mutant strain; test: Anti-HIV-1 mutant strain L100I in MT-4 cells, MTT method; type: cell-based; conditions: Human immunodeficiency virus 1, MT4, read-out: EC50 L100I
Experimental: as §2

[5] = test system: HIV-1 Y188L mutant strain; test: Anti-HIV-1 mutant strain Y188L in MT-4 cells, MTT method; type: cell-based; conditions: Human immunodeficiency virus 1, MT4, read-out: EC50 Y188L
Experimental: as §2

WT HIV-1 strain (IIIB) = test: Anti-HIV-1 (IIIB, wild-type) activity in MT-4 cells, MTT method; type: cell-based; conditions: for SI (IIIB): selectivity index, CC50/EC50 (IIIB)
Experimental: as §1

HIV-1 WT RT = biological target: T1, HIV-1 WT RT (Human immunodeficiency virus type 1 group M subtype B, UniProt P04585); test: HIV-1 RT inhibition assay (Roche kit, ELISA); type: biochemical
T1 construct: The RT is a heterodimer consisting of two subunits, p66 (560 residues) and p51 (440 residues); purchased Roche
Experimental: An HIV-1 reverse transcriptase (RT) assay kit produced by Roche was used for the RT inhibition assay. All the reagents for performing the RT reaction came from the kit, and the ELSIA procedures for RT inhibition assay were conducted following the description in the kit protocol [38]. […] Then used, a washing buffer was used to remove the unbound dNTPs, and an anti-DIG-POD working solution was added. […] The unbound anti-DIG-PODs were removed, and the peroxidesubstrate (ABST) solution was added to the MTPs. A colored reaction proceeds during the cleavage of the substrate catalyzed by POD. […] The percentage inhibitory activity of RT inhibitors was calculated by the formula given below: % Inhibition = [O.D. value with RT but without inhibitors − O.D. value with RT and inhibitors]/[O.D. value with RT and inhibitors − O.D. value without RT and inhibitors].

[6] = test system: HIV-1 F227L + V106A mutant strain; test: Anti-HIV-1 double mutant F227L + V106A in MT-4 cells, MTT method; type: cell-based; conditions: Human immunodeficiency virus 1, MT4, read-out: EC50 F227L + V106A
Experimental: as §2

[7] = test system: HIV-1 Y181C mutant strain; test: Anti-HIV-1 mutant strain Y181C in MT-4 cells, MTT method; type: cell-based; conditions: Human immunodeficiency virus 1, MT4, read-out: EC50 Y181C
Experimental: as §2

HIV-2 strain (ROD) = test: Anti-HIV-2 (ROD) activity in MT-4 cells, MTT method; type: cell-based
Experimental: as §1

[8] = Human immunodeficiency virus 1, IIIB, MT4, read-out: EC50 IIIB, MT-4 cells, WT HIV-1 IIIB, MTT
[9] = Human immunodeficiency virus 2, MT4, read-out: EC50 ROD
[10] = Human immunodeficiency virus 1, MT4, MT-4 cells, WT HIV-1 IIIB, MTT, read-out: EC50 IIIB

SMILES	EC50 [1] [nM]	EC50 [2] [nM]	Resistance Folds K103N [2]	CC50 at 5 days (in vitro) [nM]	EC50 [3] [nM]	EC50 [4] [nM]	EC50 [5] [nM]	EC50 (WT HIV-1 strain (IIIB); [8]) [nM]	IC50 (HIV-1 WT RT) [nM]	EC50 [6] [nM]	EC50 [7] [nM]	EC50 (HIV-2 strain (ROD); [9]) [nM]	SI (IIIB) (WT HIV-1 strain (IIIB))	melting point [°C]	EC50 (WT HIV-1 strain (IIIB); [10]) [nM]	EC50 (HIV-2 strain (ROD); Human immunodeficiency virus 2, MT4, MT-4 cells, HIV-2 ROD, MTT, read-out: EC50 ROD) [nM]
Cc1cc(COc2cccc(C#N)c2)cc(C)c1Oc1ccnc(Nc2ccc(C#N)cc2)n1 [TF3, 3-((4-((2-((4-cyanophenyl)amino)pyrimidin-4-yl)oxy)-3,5-dimethylbenzyl)oxy) benzonitrile]	1540 ± 102	48.4 ± 7.5	1.92	5520 ± 297	87.7 ± 8.5	116 ± 5.8	895 ± 90.2	24.5 ± 4.1	60	755 ± 156	245 ± 39.6	> 5520	–	–	–	–
Cc1cc(COc2ccccc2)cc(C)c1Oc1ccnc(Nc2ccc(C#N)cc2)n1 [TF1, 4-((4-(2,6-dimethyl-4-(phenoxymethyl)phenoxy)pyrimidin-2-yl)amino) benzonitrile]	6850 ± 1170	50.7 ± 9.6	3.00	> 296000	76.5 ± 9.4	221 ± 53.5	1520 ± 92.1	17.1 ± 2.3	62	1710 ± 581	515 ± 60.4	> 296000	>17,326.7	179 to 182	–	–
Cc1ccnc2c1NC(=O)c1cccnc1N2C1CC1 [NVP, nevirapine, reference compound]	> 15000	7500 ± 867	–	> 15000	149 ± 12	1860 ± 365	≥ 13800	–	–	> 15000	10100	–	–	–	123 ± 7.3	–
Cc1cc(COc2cccnc2)cc(C)c1Oc1ccnc(Nc2ccc(C#N)cc2)n1 [TF11, 4-((4-(2,6-Dimethyl-4-((pyridin-3-yloxy)methyl)phenoxy)pyrimidin-2-yl)amino) benzonitrile]	> 14800	444 ± 68.6	2.23	14800	≥ 3020	9574 ± 22.2	> 14800	199 ± 13	483 ± 30	> 14800	> 14800	> 14800	74.5	237 to 240	–	–
Cc1cc(COc2cccc(CO)c2)cc(C)c1Oc1ccnc(Nc2ccc(C#N)cc2)n1 [TF9, 4-((4-(4-((3-(hydroxymethyl)phenoxy)methyl)-2,6-dimethylphenoxy)pyrimidin-2-yl)amino)benzonitrile]	1590 ± 87.5	120 ± 18.2	3.87	3460 ± 375	147 ± 12	308 ± 46.3	1100 ± 95.7	30.5 ± 4	53	1000 ± 29.6	499 ± 44.6	> 3460	113.3	147 to 150	–	–
Cc1cc(COc2ccccc2CO)cc(C)c1Oc1ccnc(Nc2ccc(C#N)cc2)n1 [TF10, 4-((4-(4-((2-(hydroxymethyl)phenoxy)methyl)-2,6-dimethylphenoxy)pyrimidin-2-yl)amino)benzonitrile]	> 4800	158 ± 18.6	4.94	4800 ± 342	179 ± 26.9	635 ± 28.2	> 4800	32.2 ± 3.3	55	1490 ± 33.9	766 ± 22.5	> 4800	149.1	179 to 182	–	–
Cc1cc(COc2cncc(C#N)c2)cc(C)c1Oc1ccnc(Nc2ccc(C#N)cc2)n1 [TF13, 5-((4-((2-((4-cyanophenyl)amino)pyrimidin-4-yl)oxy)-3,5-dimethylbenzyl)oxy) nicotinonitrile]	1180 ± 68.2	28 ± 2.5	1.47	4770 ± 1560	57.7 ± 11.6	125 ± 5.9	1050 ± 66.8	19.4 ± 3.4	59 ± 1	1650 ± 19.9	265 ± 24.6	> 4770	246.4	195 to 198	–	–
COc1ccc(OCc2cc(C)c(Oc3ccnc(Nc4ccc(C#N)cc4)n3)c(C)c2)cc1 [TF5, 4-((4-(4-((4-methoxyphenoxy)methyl)-2,6-dimethylphenoxy)pyrimidin-2-yl)amino)benzonitrile]	> 254000	44.5 ± 4.9	2.00	254000	65.3 ± 10	126 ± 12.6	964 ± 98.1	21.7 ± 3.6	54 ± 4	1410 ± 570	268 ± 28.9	> 254000	–	–	–	–
Cc1cc(COc2ccccc2C#N)cc(C)c1Oc1ccnc(Nc2ccc(C#N)cc2)n1 [TF4, 2-((4-((2-((4-cyanophenyl)amino)pyrimidin-4-yl)oxy)-3,5-dimethylbenzyl)oxy) benzonitrile]	> 5300	75.9 ± 13.9	9.74	5290 ± 356	103 ± 6.8	315 ± 30.7	> 5300	7.8 ± 1	50 ± 2	1280 ± 303	482 ± 42.6	> 5290	–	–	–	–
Cc1cc(COc2ccc(N)cc2)cc(C)c1Oc1ccnc(Nc2ccc(C#N)cc2)n1 [TF17, 4-((4-(4-((4-Aminophenoxy)methyl)-2,6-dimethylphenoxy)pyrimidin-2-yl)amino) benzonitrile]	–	65.3 ± 7.6	1.97	5490 ± 328	152 ± 10.3	226 ± 28.9	905 ± 147	32.5 ± 1.7	57 ± 3	747 ± 72.2	552 ± 62.5	> 5490	–	–	–	–
O=C1Nc2ccc(Cl)cc2[C@@](C#CC2CC2)(C(F)(F)F)O1 [EFV, efavirenz, reference compound]	184 ± 22	95.1 ± 9.1	–	> 6340	4.4 ± 0.3	35 ± 4.7	240 ± 30.4	–	–	201 ± 17.3	5.5 ± 0.5	–	–	–	2.4 ± 0.3	–
Cc1cc(COc2ccc([N+](=O)[O-])cc2)cc(C)c1Oc1ccnc(Nc2ccc(C#N)cc2)n1 [TF15, 4-((4-(2,6-Dimethyl-4-((4-nitrophenoxy)methyl)phenoxy)pyrimidin-2-yl)amino) benzonitrile]	1800 ± 68.5	46.3 ± 9.7	2.00	215000	50 ± 4.4	105 ± 15.2	1080 ± 99.4	23.1 ± 3.1	63 ± 1	1660 ± 448	196 ± 25.4	> 215000	–	–	–	–
COc1ccccc1OCc1cc(C)c(Oc2ccnc(Nc3ccc(C#N)cc3)n2)c(C)c1 [TF7, 4-((4-(4-((2-methoxyphenoxy)methyl)-2,6-dimethylphenoxy)pyrimidin-2-yl)amino)benzonitrile]	> 8150	164 ± 5.5	6.31	8150 ± 548	181 ± 10.7	452 ± 70.5	> 8150	25.5 ± 8.4	73 ± 3	1220 ± 179	791 ± 62.9	> 8150	–	–	–	–
Cc1cn([C@H]2C[C@H](N=[N+]=[N-])[C@@H](CO)O2)c(=O)[nH]c1=O [AZT, Zidovudine, reference compound]	25.1 ± 1.8	22.8 ± 1.1	–	> 7480	30.1 ± 3	10 ± 1.2	19.4 ± 2.9	–	–	14.8 ± 1.1	25.1 ± 3	–	>274.0	–	27.3 ± 3.5	23.3 ± 2.1
